In the assay the target is Nano-lantern (ATP1). Conditions: 20 nM protein, 50 mM HEPES pH 7.2, coelenterazine-h 1-10 μM.

Results on one molecule are retold here after PMC3535334 (Nature Communications, 2012).

As usually defined, the Kd is the free concentration of one partner at which half of the binding sites on the other are occupied at equilibrium, for simple one-to-one binding.

The molecule `Nc1ncnc2c1ncn2[C@@H]1O[C@H](COP(=O)(O)OP(=O)(O)OP(=O)(O)O)[C@@H](O)[C@H]1O` [ATP] returned a Kd of 300 µM.
